Assay: ultimate aerobic biodegradability in aqueous medium, OECD method 301 B
Conditions: on the fourteenth day / after 14 days
Experimental: This test is an evaluation, in aqueous medium, of the ultimate aerobic biodegradability of a sample of the concentrated formulation according to the invention. This test is carried out according to the provisions of OECD method 301 B at the concentration of […] corresponding to an organic carbon content of 10 mg/l. The theoretical amount of carbon dioxide formed (CO2Th) in the “concentrated disinfectant detergent for floors, surfaces and materials at 10 mg/l of DOC” test is equal to 33.0 mg/l.
The physicochemical analysis is carried out according to standard ASTM D5291.
FIG. 1 represents the curves of results of degradation with respect to CO2Th.

`CC(=O)[O-].[Na+]` [sodium acetate] gave a percentage degradation of 81%.
